Assay results from ChEMBL document CHEMBL1221314, “Potential anti-inflammatory phenolic glycosides from the medicinal plant Moringa oleifera fruits” (Bioorg Med Chem, 2010).

What was measured:
RAW264.7 [1] = assay: Antiinflammatory activity in mouse RAW264.7 cells assessed as inhibition of LPS-induced iNOS expression incubated 30 mins prior to LPS challenge by Western blotting; type: functional, cell-based
RAW264.7 [2] = assay: Cytotoxicity against mouse RAW264.7 cells after 24 hrs by SRB assay; type: cell-based; details: raw264.7, 24 h
RAW264.7 [3] = assay: Antiinflammatory activity in mouse RAW264.7 cells assessed as inhibition of LPS-induced NO production incubated 30 mins prior to LPS challenge; type: functional, cell-based
RAW264.7 [4] = assay: Antiinflammatory activity in mouse RAW264.7 cells assessed as inhibition of LPS-induced NO production at 5 uM incubated 30 mins prior to LPS challenge; type: functional

| IC50 (RAW264.7 [3]) [µM] | SMILES | Activity (RAW264.7 [1]) | Activity (RAW264.7 [2]) | inhibition at 5 µM (RAW264.7 [4]) [%] |
| --- | --- | --- | --- | --- |
| 2.71 | CC(=O)O[C@@H]1[C@@H](O)[C@@H](O)[C@H](Oc2ccc(CN=C=S)cc2)O[C@H]1C | Dose-dependent effect | Non-toxic |  |
| 1.67 | CC(=O)O[C@H]1[C@H](Oc2ccc(CN=C=S)cc2)O[C@@H](C)[C@H](O)[C@H]1O | Dose-dependent effect | Non-toxic |  |
| > 45 | COC(=S)NCc1ccc(O[C@@H]2O[C@@H](C)[C@H](O)[C@@H](O)[C@H]2O)cc1 [NIAZININ A] |  |  | < 1 |
| > 45 | COC(=S)NCc1ccc(O[C@@H]2O[C@@H](C)[C@H](OC(C)=O)[C@@H](O)[C@H]2O)cc1 [NIAZICIN A] |  |  | 17.3 |
| > 45 | C[C@@H]1O[C@@H](Oc2ccc(CC#N)cc2)[C@H](O)[C@H](O)[C@H]1O [NIAZIRIN] |  |  | < 1 |
| 2.66 | CC(=O)O[C@@H]1[C@@H](O)[C@H](C)O[C@@H](Oc2ccc(CN=C=S)cc2)[C@@H]1O | Dose-dependent effect | Non-toxic |  |
| > 45 | CSC(=O)NCc1ccc(O[C@@H]2O[C@@H](C)[C@H](O)[C@@H](O)[C@H]2O)cc1 |  |  | 24.3 |
| 25.5 | CNC(=N)NCCC[C@H](N)C(=O)O |  |  |  |

| SMILES | IC50 (RAW264.7 [3]) [µM] | Activity (RAW264.7 [1]) | Activity (RAW264.7 [2]) | inhibition at 5 µM (RAW264.7 [4]) [%] |
| --- | --- | --- | --- | --- |
| C[C@@H]1O[C@@H](Oc2ccc(CN=C=S)cc2)[C@H](O)[C@H](O)[C@H]1O | 14.4 | Dose-dependent effect |  |  |
